According to publication PMC11233931, “Remodeling tumor‐associated macrophage for anti‐cancer effects by rational design of irreversible inhibition of mitogen‐activated protein kinase‐activated protein kinase 2” (MedComm, 2024):

Legend:
Assay in all cases: Eurofins kinase selectivity profile against 380 other human recombinant kinases (Table S2)
Type in all cases: biochemical
[1] = biological target: T1, 380 human recombinant protein kinases (Homo sapiens, UniProt O96017); conditions: CHK2(h), read-out: Inhibition rate
T1 construct: purchased Eurofins (Celle Lévescault)
Summary of the method: (§1)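 Values come from a contract kinase-profiling service that tested the compound at multiple concentrations across 380 recombinant human kinases, as an off-target check against the MK2 activity.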

[2] = biological target: T2, 380 human recombinant protein kinases (Homo sapiens, UniProt P04629); conditions: TrkA(h), read-out: Inhibition rate (%)
T2 construct: purchased Eurofins (Celle Lévescault)
Summary of the method: as §1

[3] = biological target: T3, 380 human recombinant protein kinases (Homo sapiens, UniProt P20794); conditions: MAK(h), read-out: Inhibition rate
T3 construct: purchased Eurofins (Celle Lévescault)
T3 sequence (P20794 1-623): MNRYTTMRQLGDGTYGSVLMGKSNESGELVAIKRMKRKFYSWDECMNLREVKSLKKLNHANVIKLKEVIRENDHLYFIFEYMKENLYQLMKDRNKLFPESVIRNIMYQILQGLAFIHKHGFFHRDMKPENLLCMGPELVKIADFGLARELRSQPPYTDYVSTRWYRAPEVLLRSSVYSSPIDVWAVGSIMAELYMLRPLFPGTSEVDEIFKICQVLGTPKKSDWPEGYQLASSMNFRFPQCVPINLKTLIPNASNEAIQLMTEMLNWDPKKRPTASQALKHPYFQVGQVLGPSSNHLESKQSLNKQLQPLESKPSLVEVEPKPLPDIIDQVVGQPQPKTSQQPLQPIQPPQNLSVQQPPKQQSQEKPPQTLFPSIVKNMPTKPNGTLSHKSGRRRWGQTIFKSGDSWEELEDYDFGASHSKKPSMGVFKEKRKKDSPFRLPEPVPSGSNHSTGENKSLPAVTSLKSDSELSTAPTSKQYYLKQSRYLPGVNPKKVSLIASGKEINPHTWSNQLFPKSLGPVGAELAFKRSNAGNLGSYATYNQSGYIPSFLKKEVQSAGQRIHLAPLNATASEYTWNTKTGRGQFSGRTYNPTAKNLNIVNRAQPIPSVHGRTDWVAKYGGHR
Summary of the method: as §1

[4] = biological target: T4, 380 human recombinant protein kinases (Homo sapiens, UniProt P29376); conditions: LTK(h), read-out: Inhibition rate
T4 construct: purchased Eurofins (Celle Lévescault)
Summary of the method: as §1

[5] = biological target: T5, 380 human recombinant protein kinases (Homo sapiens, UniProt P51451); conditions: Blk(h), read-out: Inhibition rate
T5 construct: purchased Eurofins (Celle Lévescault)
Summary of the method: as §1

[6] = biological target: T6, 380 human recombinant protein kinases (Homo sapiens, UniProt P80192); conditions: MLK1(h), read-out: Inhibition rate
T6 construct: purchased Eurofins (Celle Lévescault)
Summary of the method: as §1

[7] = biological target: T7, 380 human recombinant protein kinases (Homo sapiens, UniProt Q8TF76); conditions: Haspin(h), read-out: Inhibition rate
T7 construct: purchased Eurofins (Celle Lévescault)
T7 sequence (Q8TF76 1-798): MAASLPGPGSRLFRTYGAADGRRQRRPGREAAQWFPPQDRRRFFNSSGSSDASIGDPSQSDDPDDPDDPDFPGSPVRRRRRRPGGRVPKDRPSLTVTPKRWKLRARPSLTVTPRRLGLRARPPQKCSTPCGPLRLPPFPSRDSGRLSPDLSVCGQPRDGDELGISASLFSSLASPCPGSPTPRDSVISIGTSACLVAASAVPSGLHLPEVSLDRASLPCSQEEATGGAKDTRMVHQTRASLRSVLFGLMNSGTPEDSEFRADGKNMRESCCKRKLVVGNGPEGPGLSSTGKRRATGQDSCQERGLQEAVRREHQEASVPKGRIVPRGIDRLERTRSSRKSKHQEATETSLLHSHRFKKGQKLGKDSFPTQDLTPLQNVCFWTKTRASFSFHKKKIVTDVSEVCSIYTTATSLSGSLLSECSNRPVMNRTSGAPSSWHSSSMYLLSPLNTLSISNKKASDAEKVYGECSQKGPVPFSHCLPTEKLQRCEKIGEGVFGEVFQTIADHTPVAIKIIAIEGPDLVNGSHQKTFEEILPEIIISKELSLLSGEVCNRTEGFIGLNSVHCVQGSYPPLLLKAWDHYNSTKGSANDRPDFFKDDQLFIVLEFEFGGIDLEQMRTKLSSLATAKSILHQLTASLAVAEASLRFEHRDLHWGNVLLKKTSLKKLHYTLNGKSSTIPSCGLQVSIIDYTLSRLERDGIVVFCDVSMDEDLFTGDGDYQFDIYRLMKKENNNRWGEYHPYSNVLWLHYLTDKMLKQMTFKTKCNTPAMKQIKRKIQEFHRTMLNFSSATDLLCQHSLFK
Summary of the method: as §1

T6 sequence (P80192 whole entry): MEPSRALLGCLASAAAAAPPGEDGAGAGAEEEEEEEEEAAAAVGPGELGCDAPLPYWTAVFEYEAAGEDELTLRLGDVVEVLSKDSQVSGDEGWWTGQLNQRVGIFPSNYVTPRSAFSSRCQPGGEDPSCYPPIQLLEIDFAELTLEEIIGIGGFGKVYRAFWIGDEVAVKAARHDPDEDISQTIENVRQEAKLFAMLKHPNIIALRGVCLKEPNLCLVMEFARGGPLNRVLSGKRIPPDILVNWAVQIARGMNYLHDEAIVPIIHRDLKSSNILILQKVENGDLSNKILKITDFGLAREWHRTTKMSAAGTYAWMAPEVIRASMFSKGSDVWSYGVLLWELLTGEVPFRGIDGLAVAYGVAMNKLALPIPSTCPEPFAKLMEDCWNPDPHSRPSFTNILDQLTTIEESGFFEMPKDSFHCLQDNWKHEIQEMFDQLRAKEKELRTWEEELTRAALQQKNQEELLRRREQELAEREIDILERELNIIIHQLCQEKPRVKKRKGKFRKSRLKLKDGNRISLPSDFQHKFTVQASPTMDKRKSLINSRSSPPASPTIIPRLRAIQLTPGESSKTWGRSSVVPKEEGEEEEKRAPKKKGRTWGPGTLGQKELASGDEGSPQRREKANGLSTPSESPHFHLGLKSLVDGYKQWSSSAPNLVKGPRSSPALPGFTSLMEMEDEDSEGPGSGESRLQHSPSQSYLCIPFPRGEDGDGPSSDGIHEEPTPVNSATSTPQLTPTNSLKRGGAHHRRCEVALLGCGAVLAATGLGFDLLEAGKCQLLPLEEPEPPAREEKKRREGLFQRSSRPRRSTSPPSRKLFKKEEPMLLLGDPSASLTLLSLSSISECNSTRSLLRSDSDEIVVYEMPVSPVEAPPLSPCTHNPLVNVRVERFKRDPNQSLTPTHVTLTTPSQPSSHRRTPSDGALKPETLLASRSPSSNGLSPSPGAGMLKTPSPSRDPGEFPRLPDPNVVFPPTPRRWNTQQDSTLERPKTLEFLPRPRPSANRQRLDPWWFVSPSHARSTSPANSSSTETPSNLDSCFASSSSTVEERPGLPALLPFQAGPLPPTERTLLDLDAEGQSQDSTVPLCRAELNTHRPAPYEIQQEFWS
T2 sequence (P04629 33-796): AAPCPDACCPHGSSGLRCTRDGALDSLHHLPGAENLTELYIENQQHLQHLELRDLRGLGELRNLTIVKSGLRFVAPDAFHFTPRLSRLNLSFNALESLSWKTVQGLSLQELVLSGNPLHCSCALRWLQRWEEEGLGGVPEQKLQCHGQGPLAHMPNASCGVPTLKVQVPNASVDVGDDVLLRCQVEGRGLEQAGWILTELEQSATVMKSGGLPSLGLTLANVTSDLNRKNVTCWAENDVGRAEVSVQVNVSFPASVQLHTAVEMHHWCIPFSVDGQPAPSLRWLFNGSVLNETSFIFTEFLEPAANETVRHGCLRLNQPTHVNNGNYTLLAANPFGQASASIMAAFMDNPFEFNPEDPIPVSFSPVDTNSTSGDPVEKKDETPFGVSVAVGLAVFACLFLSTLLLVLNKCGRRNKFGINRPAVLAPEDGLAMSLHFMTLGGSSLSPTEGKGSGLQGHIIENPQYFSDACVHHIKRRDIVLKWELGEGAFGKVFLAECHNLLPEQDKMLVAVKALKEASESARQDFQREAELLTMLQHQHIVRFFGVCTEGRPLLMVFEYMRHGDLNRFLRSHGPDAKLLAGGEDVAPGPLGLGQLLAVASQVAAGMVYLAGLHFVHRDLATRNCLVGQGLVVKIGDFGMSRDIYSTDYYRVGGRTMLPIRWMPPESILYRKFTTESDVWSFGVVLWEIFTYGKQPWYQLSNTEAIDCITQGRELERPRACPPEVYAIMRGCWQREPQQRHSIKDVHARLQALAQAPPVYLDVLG
T1 sequence (O96017 whole entry): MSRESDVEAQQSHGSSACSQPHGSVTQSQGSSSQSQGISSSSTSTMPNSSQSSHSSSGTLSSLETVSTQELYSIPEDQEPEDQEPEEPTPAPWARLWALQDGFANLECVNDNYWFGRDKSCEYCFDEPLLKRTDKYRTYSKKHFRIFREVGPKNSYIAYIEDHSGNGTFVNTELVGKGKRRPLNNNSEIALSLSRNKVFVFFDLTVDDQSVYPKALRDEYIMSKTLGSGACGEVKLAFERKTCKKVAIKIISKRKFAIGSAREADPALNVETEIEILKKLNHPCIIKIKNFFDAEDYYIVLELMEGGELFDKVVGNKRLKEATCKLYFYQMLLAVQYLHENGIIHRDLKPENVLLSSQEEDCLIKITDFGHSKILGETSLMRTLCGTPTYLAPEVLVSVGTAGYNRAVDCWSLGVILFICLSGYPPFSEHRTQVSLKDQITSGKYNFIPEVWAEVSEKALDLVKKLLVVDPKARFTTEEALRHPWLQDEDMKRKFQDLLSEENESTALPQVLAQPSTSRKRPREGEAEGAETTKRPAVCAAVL
T5 sequence (P51451 whole entry): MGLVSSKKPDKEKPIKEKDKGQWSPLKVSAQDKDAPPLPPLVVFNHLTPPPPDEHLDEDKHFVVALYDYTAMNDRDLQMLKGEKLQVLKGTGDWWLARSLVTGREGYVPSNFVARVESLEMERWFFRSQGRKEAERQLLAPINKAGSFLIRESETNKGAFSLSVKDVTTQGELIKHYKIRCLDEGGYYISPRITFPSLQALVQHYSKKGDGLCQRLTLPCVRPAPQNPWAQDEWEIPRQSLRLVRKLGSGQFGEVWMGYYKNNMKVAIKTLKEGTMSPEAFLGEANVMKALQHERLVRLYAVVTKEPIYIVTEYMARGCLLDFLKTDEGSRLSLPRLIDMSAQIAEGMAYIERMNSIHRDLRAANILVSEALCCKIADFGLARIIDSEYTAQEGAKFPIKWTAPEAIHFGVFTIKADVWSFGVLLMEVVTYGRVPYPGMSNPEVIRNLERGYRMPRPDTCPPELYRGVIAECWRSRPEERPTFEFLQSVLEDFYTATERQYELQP
T4 sequence (P29376 17-864): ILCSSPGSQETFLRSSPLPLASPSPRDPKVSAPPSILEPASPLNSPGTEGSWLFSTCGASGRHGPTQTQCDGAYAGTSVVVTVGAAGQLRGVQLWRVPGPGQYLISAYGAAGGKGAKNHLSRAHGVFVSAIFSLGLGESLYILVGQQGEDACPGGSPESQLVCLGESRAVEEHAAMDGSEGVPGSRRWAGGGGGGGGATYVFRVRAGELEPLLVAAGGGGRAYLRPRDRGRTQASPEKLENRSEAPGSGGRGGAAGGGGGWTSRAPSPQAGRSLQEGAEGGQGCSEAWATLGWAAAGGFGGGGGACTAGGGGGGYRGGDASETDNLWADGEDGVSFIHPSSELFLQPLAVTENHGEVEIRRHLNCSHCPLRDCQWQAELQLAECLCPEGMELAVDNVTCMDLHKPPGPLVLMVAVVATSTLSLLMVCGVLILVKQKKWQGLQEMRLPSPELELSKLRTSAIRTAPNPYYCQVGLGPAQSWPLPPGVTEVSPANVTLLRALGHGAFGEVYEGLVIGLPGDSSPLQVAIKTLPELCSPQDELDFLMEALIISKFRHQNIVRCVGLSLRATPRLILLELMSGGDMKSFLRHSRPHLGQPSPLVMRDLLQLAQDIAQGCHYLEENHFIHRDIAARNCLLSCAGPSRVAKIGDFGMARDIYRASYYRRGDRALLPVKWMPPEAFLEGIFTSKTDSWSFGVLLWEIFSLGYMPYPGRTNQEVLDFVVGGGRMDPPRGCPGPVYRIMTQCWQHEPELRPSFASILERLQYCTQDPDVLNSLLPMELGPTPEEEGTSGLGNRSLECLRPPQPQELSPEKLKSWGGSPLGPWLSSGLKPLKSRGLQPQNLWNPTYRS

Compound C=CC(=O)Nc1cc(-c2cc(-c3cc4c([nH]3)CCNC4=O)ccn2)ccc1OC(F)(F)F [compound 11] has an inhibition at 0.01 µM ([1]; 10 nM) of 3%, an inhibition at 0.1 µM ([1]; 100 nM) of 16% and an inhibition at 1 µM ([1]; 1000 nM) of 55%. The inhibition at 0.01 µM ([2]; 10 nM) was -6%, the inhibition at 0.1 µM ([2]; 100 nM) was -1% and the inhibition at 1 µM ([2]; 1000 nM) was 15%. For the same compound, the inhibition at 0.01 µM ([3]; 10 nM) was -9%, the inhibition at 0.1 µM ([3]; 100 nM) was -1% and the inhibition at 1 µM ([3]; 1000 nM) was -2%. For the same compound, the inhibition at 0.01 µM ([4]; 10 nM) was -6%, the inhibition at 0.1 µM ([4]; 100 nM) was 2% and the inhibition at 1 µM ([4]; 1000 nM) was 6%. For the same compound, the inhibition at 0.01 µM ([5]; 10 nM) was 13%, the inhibition at 0.1 µM ([5]; 100 nM) was 4% and the inhibition at 1 µM ([5]; 1000 nM) was 12%. It also gave an inhibition at 0.01 µM ([6]; 10 nM) of -3%, an inhibition at 0.1 µM ([6]; 100 nM) of 0% and an inhibition at 1 µM ([6]; 1000 nM) of 10%. The inhibition at 0.01 µM ([7]; 10 nM) was 1%, the inhibition at 0.1 µM ([7]; 100 nM) was 11% and the inhibition at 1 µM ([7]; 1000 nM) was 46%.
